Source: patent publication EP0590563A1, “Biotin amides, a process for their preparation and therapeutical compositions containing them as the active principles for the treatment of diabetes and relative complicating diseases” (LIFEGROUP S.p.A., priority 1992, dated 1994)
Like-named read-outs stand apart in the source and are kept apart here.

How the values were obtained:
[1] = solubility in organic solvents; format: physicochemical; settings: organic solvent or mixture
[2] = solubility in water; format: physicochemical; settings: for solubility in water: result in words
[3] = tested on: diabetic patients; settings: 16mg/die for 1 week, insulin treatment interrupted; cited from earlier work
[4] = tested on: hepatic glucokinase; test: Ex vivo hepatic glucokinasic activity, Experiment A; format: in vivo, Wistar rats; settings: for Glucokinasic activity: 3 mg/kg i.p. after 24 hours without food, sacrifice after 6 hours, mean ± stan. deviation
Method: This experiment is carried out following to Chauhan et al. process (J. Biol. Chem. 266, 10035, 1991), according to this process, hepatic glucokinase in the rat, which activity is depressed by food absence is reactivated by the biotin action. 15 Wistar rats weighing on average 250 g are divided into three groups, the first one represent the controls, the second one is treated by intraperitoneal route with biotin (3 mg/kg) and the third group with biotinylethanolamine (3 mg/kg) again by intraperitoneal route. Rats are treated after 24 hours without food and after 6 hours are sacrificed by decapitation. Livers are homogenized in 5 volumes 50 mM Tris at pH 7, 0.15 M KCl, 5 mM EGTA, 4 mM MgCl₂, and 2 mM dithiothreitol and centrifugated at 100.000 x g for 60 minutes. The surnatant, frozen to -80 °C, is used for the analyses, after identifying proteins according to Bradford method (Anal. Biochem. 72, 248, 1976). Glucokinase is dosed by spectrophotometry according to Dakshinamurti et al. (Can. J. Biochem. 46, 75, 1968) with the following results: […]

[5] = tested on: diabetes induced by streptozotocin; test: Experimental diabetes induced by streptozotocin; format: in vivo, male Wistar rats; settings: for AcAc: Aceto Acetate
Method: The derivatives are then tested in order to define their biologic activity in experimental conditions of hyperglycemia induced both by food absence and by diabetes induced by streptozotocin. Hepatic glucokinase activity is examined in the experimental condition of food absence. Glycemia, insulinemia and the levels of Aceto Acetate (Ac.Ac.) are examined in the diabetes induced by streptozotocin.
10 male Wistar rats (200 g) are divided into 4 groups, the first group is composed by the controls, to the remaining groups streptozotocin is injected by intraperitoneal route (80 mg/kg). The third group is furthermore treated with biotin (3 mg/kg) by intraperitoneal route, and the fourth group with biotinyl ethanolamide (3 mg/kg) again by intraperitoneal route. The treatment is repeated for three days, then a blood sample is taken for analysis on the fifth day from the initial treatment.

[6] = tested on: neuropathy; settings: intramuscular for 6 weeks, with oral daily dose of 5 mg for about 2 years; cited from earlier work
[7] = tested on: genetically diabetic mice KK; settings: 2mg/kg for 14 days; cited from earlier work
[8] = tested on: hepatic glucokinase; test: Ex vivo hepatic glucokinasic activity, Experiment B; format: in vivo, Sprague Dawley rat; settings: 2 mg/kg i.p., rats without food for 24 hours, 3 hours after the treatment
Method: Also this experiment, like the previous one, is carried out by following Chauhan et al. process (J. Biol. Chem. 266, 10035, 1991), according to this process, hepatic glucokinase in the rat, which activity is depressed by food absence and it is reactivated by the biotin action.
Sprague Dawley rat weighing on average 260 g left without food for 24 hours, are divided into 15 groups, each of 13 groups are respectively intraperitoneally treated with 2 mg/kg of one of the compounds of the present invention hereinbelow reported in Table 1 or with the same dosage of biotin, all these substances being previously dissolved in physiological solutions. The obtained results are compared with those of the two groups corresponding to normal rats feeded ad libitum and with untreated rats left without food for 24 hours, all the animals had free admission to water.
3 hours after the treatment the rats are sacrificed by cerebral displacement. […] The homogenates are centrifugated at 100.000 x g for 60 minutes.Their proteic concentration is determined according to the above mentioned Bradford method (Anal. Biochem. 72, 248, 1976).
Glucokinase activity is evaluated according to Dakshinamurti et al. (Can. J. Biochem. 46, 75, 1968), and expressed as arbitrary units /proteic concentration of the samples.

[9] = background statement, in words; cited from earlier work
[10] = aqueous buffer, in 0.1M phosphate buffer at pH 7.4
[11] = streptozotocin 80 mg/kg i.p., test substance 3 mg/kg i.p. for three days, blood sample on the fifth day
[12] = result in words, 3 mg/kg i.p., streptozotocin rats

`N=C(N)NCCC[C@H](NC(=O)CCCC[C@@H]1SC[C@@H]2NC(=O)N[C@@H]21)C(=O)O` [Example 11, N-β-biotinyl-L-arginine] showed a solubility ([1]; in DMSO) greater than 10000 µg/mL and a solubility ([2]; water) greater than 10000 µg/mL.

Compound `O=C(CCCC[C@@H]1SC[C@@H]2NC(=O)N[C@@H]21)NCCCCO` [Example 5, N-β-biotinyl-4-amino-butanol] has a solubility ([1]; in DMSO) greater than 10000 µg/mL and a solubility ([2]; water) greater than 5000 µg/mL.

In the case of `O=C(CCCC[C@@H]1SC[C@@H]2NC(=O)N[C@@H]21)NC1CCCCC1` [Example 9, N-β-biotinyl-aminocyclohexane], the solubility ([1]; in DMSO) is reported as greater than 10000 µg/mL and the solubility in water ([2]; water) is reported as “poorly soluble”.

In the case of `O=C(CCCC[C@@H]1SC[C@@H]2NC(=O)N[C@@H]21)N[C@@H](CS)C(=O)O` [Example 12, N-β-biotinyl-L-cysteine], the solubility ([1]; in DMSO) is reported as greater than 10000 µg/mL and the solubility [2, 10] is reported as greater than 10000 µg/mL.

For `O=C(O)CCCC[C@@H]1SC[C@@H]2NC(=O)N[C@@H]21` [Biotin, biotin], the hematic glucose rate [3] is listed as “significant reduction”, the Glucokinasic activity [4] is listed as 3.96 ± 0.70 U./min/protein mg and the AcAc [5, 11] is listed as 0 nmol/L. The Glycemia [5, 12] was “normalized”, the insulinemia [5, 12] was “active” and the Glycemia [5, 11] was 7.4 ± 0.9 mmol/L. For the same compound, the insulinemia [5, 11] was 25.1 ± 1.5 mU/l, the “conduction velocity at the level of the motor nerves and of the action sensory potentials” value [6] was “slight improvement” and the subjective neurologic symptoms [6] was “marked improvement”. The glucose tolerance [7] was “improved sensibly”, the glucokinase activity [8] was 3.662± 0.280 UA/mg proteins and the solubility in water [9] was “poorly soluble in water”.

With `O=C(CCCC[C@@H]1SC[C@@H]2NC(=O)N[C@@H]21)NCc1ccc([N+](=O)[O-])cc1` [Example 10, N-β-biotinyl-4-nitrobenzylamine] the solubility ([1]; in DMSO) was greater than 10000 µg/mL and the solubility in water ([2]; water) was “poorly soluble”.

For `CCCCNC(=O)CCCC[C@@H]1SC[C@@H]2NC(=O)N[C@@H]21` [Example 8, N-β-biotinyl-1-aminobutane], the solubility ([1]; in DMSO) was greater than 10000 µg/mL and the solubility in water ([2]; water) was “poorly soluble”.

In the case of `O=C(CCCC[C@@H]1SC[C@@H]2NC(=O)N[C@@H]21)NCCO` [Example 1, N-β-biotinyl-ethanolamine], the solubility ([1]; in DMSO) is reported as greater than 10000 µg/mL, the Glucokinasic activity [4] is reported as 4.27 ± 0.45 U./min/protein mg and the “Glucokinasic activity compared with biotin” value ([4]; result in words, after 6 hours, 3 mg/kg i.p.) is reported as “more active than biotin”. For the same compound, the AcAc [5, 11] was 0 nmol/L, the Glycemia [5, 12] was “normalized” and the insulinemia [5, 12] was “active”. The Glycemia [5, 11] was 6.0 ± 0.5 mmol/L, the insulinemia [5, 11] was 23.5 ± 1.8 mU/l and the solubility ([2]; water) was greater than 10000 µg/mL.

With `CN=C(N)NCCC[C@H](NC(=O)CCCC[C@@H]1SC[C@@H]2NC(=O)N[C@@H]21)C(=O)O` [Example 2, N-β-biotinyl-N^G-methyl-L-arginine] the solubility ([1]; in DMSO) was greater than 10000 µg/mL and the solubility ([2]; water) was greater than 10000 µg/mL.

For `O=C(CCCC[C@@H]1SC[C@@H]2NC(=O)N[C@@H]21)N[C@@H](CO)C(=O)O` [Example 7, N-β-biotinyl-L-serine], the solubility ([1]; in DMSO) was greater than 10000 µg/mL and the solubility [2, 10] was greater than 10000 µg/mL.

Work on `O=C1N[C@H]2[C@H](CS[C@H]2CCCCC(=O)N2CCN(CCO)CC2)N1` [Example 3, N¹-β-biotinyl-N⁴-(2-hydroxyethyl) piperazine hydrochlorate] yielded a solubility ([1]; in DMSO) greater than 10000 µg/mL and a solubility ([2]; water) greater than 10000 µg/mL.

For `O=C(CCCC[C@@H]1SC[C@@H]2NC(=O)N[C@@H]21)NCc1ccccc1` [Example 4, N-β-biotinyl-benzylamine], the solubility ([1]; in DMSO) was greater than 10000 µg/mL, the solubility ([1]; in ethanol) was greater than 10000 µg/mL and the solubility in water ([2]; water) was “poorly soluble”.

For `O=C(CCCC[C@@H]1SC[C@@H]2NC(=O)N[C@@H]21)NCCNC(=O)CCCC[C@@H]1SC[C@@H]2NC(=O)N[C@@H]21` [Example 6, N,N'bis-(β-biotinyl)-ethylendiamine], the solubility ([1]; in hot DMSO) was greater than 2000 µg/mL and the solubility in water ([2]; water) was “poorly soluble”.
